{"source": "patent US10919879B2", "about": "“Synthesis and novel salt forms of (R)-5-((E)-2-pyrrolidin-3-ylvinyl)pyrimidine” (Oyster Point Pharma, Inc., priority 2008, dated 2021)", "key": {"[1]": {"assay": "Water solubility of the free base", "format": "physicochemical", "conditions": "free base form, viscous oil", "description": "Aqueous solubility was determined by suspending sufficient compound in water to give a maximum final concentration of ≥10 mg/mL of the parent free-form of the compound. The suspension was equilibrated at 25° C. for 24 h, and then the pH was measured. The suspension was then filtered through a glass fiber C filter into a 96 well plate. The filtrate was then diluted by a factor of 101. Quantitation was by HPLC with reference to a standard solution of approximately 0.1 mg/mL in DMSO. Different volumes of the standard, diluted and undiluted sample solutions were injected. The solubility was calculated using the peak areas determined by integration of the peak found at the same retention time as the principal peak in the standard injection. If there was sufficient solid in the filter plate, the XRPD was collected."}, "[2]": {"assay": "Stability of the free base", "format": "physicochemical", "conditions": "free base form, viscous oil"}, "α4β2 nicotinic subtype": {"target": "α4β2 nicotinic subtype (Homo sapiens, UniProt P17787+P43681)", "sequence (P43681 29-627 limits assumed)": "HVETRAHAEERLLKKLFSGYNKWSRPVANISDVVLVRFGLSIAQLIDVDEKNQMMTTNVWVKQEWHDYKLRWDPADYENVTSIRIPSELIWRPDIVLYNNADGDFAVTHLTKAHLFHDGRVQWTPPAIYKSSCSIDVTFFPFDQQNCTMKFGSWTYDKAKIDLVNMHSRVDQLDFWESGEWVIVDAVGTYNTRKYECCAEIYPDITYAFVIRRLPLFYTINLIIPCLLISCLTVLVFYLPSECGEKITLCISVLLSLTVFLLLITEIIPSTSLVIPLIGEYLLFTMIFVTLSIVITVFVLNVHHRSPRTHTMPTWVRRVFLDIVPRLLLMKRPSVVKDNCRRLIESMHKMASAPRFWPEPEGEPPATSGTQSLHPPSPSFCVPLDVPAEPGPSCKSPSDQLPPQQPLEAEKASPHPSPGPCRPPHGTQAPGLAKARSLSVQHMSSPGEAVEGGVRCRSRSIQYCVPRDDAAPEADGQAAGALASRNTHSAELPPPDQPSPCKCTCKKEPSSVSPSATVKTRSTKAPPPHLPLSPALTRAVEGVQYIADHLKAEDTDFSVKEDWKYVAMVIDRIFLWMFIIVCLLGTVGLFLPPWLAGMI", "sequence (P17787 26-502)": "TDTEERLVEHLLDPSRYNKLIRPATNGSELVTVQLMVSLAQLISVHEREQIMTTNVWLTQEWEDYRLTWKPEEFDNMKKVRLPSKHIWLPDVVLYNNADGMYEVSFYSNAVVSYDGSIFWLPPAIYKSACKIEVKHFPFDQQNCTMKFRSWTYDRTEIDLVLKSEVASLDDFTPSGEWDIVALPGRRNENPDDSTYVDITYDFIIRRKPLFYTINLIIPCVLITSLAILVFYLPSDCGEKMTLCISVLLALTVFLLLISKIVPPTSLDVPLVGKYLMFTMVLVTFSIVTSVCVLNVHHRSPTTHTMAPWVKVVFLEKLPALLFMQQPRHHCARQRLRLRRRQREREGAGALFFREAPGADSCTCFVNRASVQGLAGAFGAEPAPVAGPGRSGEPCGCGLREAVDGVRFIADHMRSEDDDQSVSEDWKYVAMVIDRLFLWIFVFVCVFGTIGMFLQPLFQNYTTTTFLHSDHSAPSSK", "conditions": "α4β2 over α7, ganglionic and muscle subtypes; background statement, no test described; cited from earlier work"}}, "data": [{"compound": "C(=C\\[C@H]1CCNC1)/c1cncnc1", "note": "[(R)-5-((E)-2-pyrrolidin-3-ylvinyl)pyrimidine]", "values": [{"measurement": "water solubility", "setting": "[1]", "result": "limited"}, {"measurement": "stability", "setting": "[2]", "result": "limited"}, {"measurement": "NNR agonist selectivity", "setting": "α4β2 nicotinic subtype", "result": "selectivity for the α4β2 nicotinic subtype over other nicotinic subtypes"}]}]}
